{
  "source": "patent US7214539B2",
  "about": "“Scintillation proximity test” (GE Healthcare Limited, priority 1997, dated 2007)",
  "key": {"[1]": {"molecular_target": "T1, HIV reverse transcriptase (Human immunodeficiency virus type 1 group M subtype B, UniProt P04585)", "T1 construct": "0.05 units of HIV reverse transcriptase (Amersham T3610Y); purchased Amersham T3610Y", "assay": "Reverse transcriptase enzyme SPA assay (conventional SPA, streptavidin PVT SPA beads)", "type": "biochemical", "from_the_text": "The reverse transcriptase enzyme SPA assay (Amersham NK8972) is a homogeneous assay system which uses a biotinylated DNA/RNA oligonucleotide enzyme substrate which is captured on streptavidin PVT SPA beads for quantification. […]"}, "[2]": {"molecular_target": "T1, HIV reverse transcriptase", "assay": "Reverse transcriptase inhibition assay with streptavidin-coated polystyrene europium beads and CCD imaging", "type": "biochemical", "method": "The reverse transcriptase enzyme SPA assay (Amersham NK8972) is a homogeneous assay system which uses a biotinylated DNA/RNA oligonucleotide enzyme substrate which is captured on streptavidin PVT SPA beads for quantification. In this assay, streptavidin-coated organic chelate beads prepared from polystyrene (PST) containing europium were used and the inhibition of reverse transcriptase by aurintricarboxylic acid determined.\nBiotinylated, ready annealed primer/template was added to the wells of a white microplate. This was followed by [^3H]TTP (Amersham TRK576) in 127 nM mixture of dATP, dCTP, dGTP, and TTP buffered in tris/HCl pH 8.0, 80 mM KCl, 10 mM MgCl2, 10 mM DTT and 0.05% w/v Nonidet P40. Aurintricarboxylic acid at concentrations between 0.05 and 1 μM was added and the reactions were initiated by the addition of 0.05 units of HIV reverse transcriptase (Amersham T3610Y). Plates were incubated at 37° C. for 20 minutes and were terminated with the addition of stop reagent. 0.1 mg of streptavidin coated PST beads was added and the plates were incubated overnight at room temperature. The signal generated was detected using the CCD imaging system."}},
  "data": [
    {"smiles": "O=C(O)C1=CC(=C(c2ccc(O)c(C(=O)O)c2)c2ccc(O)c(C(=O)O)c2)C=CC1=O", "note": "[aurintricarboxylic acid]", "values": [
      {"measurement": "IC50", "setting": "[1]", "value": 0.18, "unit": "µM"},
      {"measurement": "IC50", "setting": "[2]", "value": 0.23, "unit": "µM"},
      {"measurement": "inhibition of reverse transcriptase activity", "setting": "[2]; 1 μM of inhibitor, PST beads, CCD imaging", "value": 85, "unit": "%"}
    ]}
  ]
}
